Source: EP1369114A1, “Use of tryptophan metabolites as pharmaceutical agents” (Terness, Peter, Priv. Doz. Dr., priority 2002, dated 2003)

Tested on: kynurenine-suppressed T cells
Test: Polyclonal restimulation with Concanavalin A of T cells suppressed during anti-CD3 stimulation
Format: cell-based, human
Settings: anti-CD3 plus kynurenine 2 days, washed, Con-A in the absence of kynurenine
Protocol: • (a) Allogeneic T-cell response. DCs were infected with recombinant IDO-adeno-GFP (DC-IDO-GFP), IDO-adeno (DC-IDO) or with control adenoviruses (DC-adeno) at a MOI (multiplicity of infection) up to 500 for 2 days. Lymphocytes (PBMCs) were separated from peripheral blood of healthy donors by density gradient centrifugation and typed for HLA antigens. Only HLA-DR-different responder lymphocytes were used for DC-induced stimulation. […] After 5 days, ^3[H]-thymidin was added for 12hrs and the number of counts (counts per minute = cpm) determined in a (3-counter (Inotech Biosystems, Lansing, MI). In order to verify whether IDO expression or adenovirus infection harm the DCs, 10^5 cells were infected with IDO-adeno-GFP, IDO-adenovirus, or adenovirus only at a stepwise decreasing MOI (500, 250, 125, ........ 3.9) and cell viability was measured in FACS following double staining with 7-AAD and anti-CD83 antibody-PE. The percentage of dead cells never exceeded 30% for any MOI following IDO-adeno-GFP- or IDO-adeno-infection and 40% following adenovirus(control)-infection. […] After 2 days, cell proliferation was assessed by measuring ^3[H]-thymidin incorporation (cpm) as described. • (c) Tryptophan metabolite titration curves. […] After 2 days, ^3[H] thymidin was added and the number of counts recorded. […] After another 2 days, ^3[H] thymidin was added and cpm determined. […]

Nc1ccccc1C(=O)CC(N)C(=O)O (stereo not shown) [kynurenine]
restimulation with Con-A after suppression: cannot be restimulated
